Experimental data as given in the NIST ThermoML archive (doi:10.1016/j.jct.2012.11.015).
Numbers after ± are expanded uncertainties.

Columns and labels:
[1] = xn = mol fraction of the nth substance listed; settings: 101 kPa, Liquid, Vibrating tube method
[2] = refractive index (Na D-line) (dimensionless); settings: 298.15 K; 101.33 kPa; Liquid; Standard Abbe refractometry
[3] = Liquid; for speed of sound: Sing-around technique in a fixed-path interferometer; for mass density: Vibrating tube method

CN(C)C=O [dimethylformamide] + CCCCCCCCCO
[1], x1 = 1
Settings | mass density [kg/m3]
298.15 K | 944.29 ± 0.057
303.15 K | 939.047 ± 0.059
308.15 K | 934.721 ± 0.06
313.15 K | 929.478 ± 0.062

CN(C)C=O [dimethylformamide] + CCCCCCCCO
[1], x1 = 1
Settings | mass density [kg/m3]
298.15 K | 944.29 ± 0.057
303.15 K | 939.047 ± 0.059
308.15 K | 934.721 ± 0.06
313.15 K | 929.478 ± 0.062

CCCCCCCCCCO [decan-1-ol]
Settings | refractive index
[2] | 1.4348 ± 0.0009

[3]
Settings | mass density, 298.15 K [kg/m3] | mass density, 303.15 K [kg/m3] | mass density, 308.15 K [kg/m3] | mass density, 313.15 K [kg/m3] | speed of sound, 298.15 K [m/s]
101 kPa | – | 822.853 ± 0.2 | 819.427 ± 0.2 | 816.383 ± 0.2 | –
101.33 kPa | 826.562 ± 0.2 | – | – | – | 1380 ± 1.5

CN(C)C=O [dimethylformamide] + CCCCCCCCCCO
[1], x1 = 1
Settings | mass density [kg/m3]
298.15 K | 944.29 ± 0.057
303.15 K | 939.047 ± 0.059
308.15 K | 934.721 ± 0.06
313.15 K | 929.478 ± 0.062

CN(C)C=O [dimethylformamide]
Settings | refractive index
[2] | 1.428 ± 0.0009

[3]
Settings | mass density, 298.15 K [kg/m3] | mass density, 303.15 K [kg/m3] | mass density, 308.15 K [kg/m3] | mass density, 313.15 K [kg/m3] | speed of sound, 298.15 K [m/s]
101 kPa | – | 939.047 ± 0.059 | 934.721 ± 0.06 | 929.478 ± 0.062 | –
101.33 kPa | 944.29 ± 0.057 | – | – | – | 1457.7 ± 1.2

CCCCCCCCCO [nonan-1-ol]
Settings | refractive index
[2] | 1.4319 ± 0.0009

[3]
Settings | mass density, 298.15 K [kg/m3] | mass density, 303.15 K [kg/m3] | mass density, 308.15 K [kg/m3] | mass density, 313.15 K [kg/m3] | speed of sound, 298.15 K [m/s]
101 kPa | – | 821.044 ± 0.62 | 817.582 ± 0.61 | 814.098 ± 0.61 | –
101.33 kPa | 824.478 ± 0.62 | – | – | – | 1365.5 ± 2.3

CCCCCCCCO [octan-1-ol] + CN(C)C=O
mass density [kg/m3], [1]
Settings | x2 = 0 | x2 = 0.2198 | x2 = 0.3728 | x2 = 0.5208 | x2 = 0.6277 | x2 = 0.7118 | x2 = 0.7877 | x2 = 0.8519 | x2 = 0.9085 | x2 = 0.9556
298.15 K | 821.222 ± 0.21 | 835.186 ± 0.17 | 847.253 ± 0.14 | 861.646 ± 0.12 | 874.238 ± 0.11 | 885.914 ± 0.097 | 898.138 ± 0.087 | 909.952 ± 0.078 | 921.843 ± 0.071 | 932.914 ± 0.065
303.15 K | 818.209 ± 0.21 | 831.811 ± 0.17 | 843.584 ± 0.15 | 857.568 ± 0.12 | 869.964 ± 0.11 | 881.458 ± 0.098 | 893.435 ± 0.088 | 905.109 ± 0.08 | 916.796 ± 0.073 | 927.592 ± 0.067
308.15 K | 814.742 ± 0.21 | 828.086 ± 0.17 | 839.752 ± 0.15 | 853.623 ± 0.12 | 865.852 ± 0.11 | 877.239 ± 0.1 | 889.113 ± 0.09 | 900.709 ± 0.081 | 912.287 ± 0.074 | 923.224 ± 0.068
313.15 K | 810.629 ± 0.21 | 823.708 ± 0.17 | 835.263 ± 0.15 | 849.056 ± 0.13 | 861.125 ± 0.11 | 872.405 ± 0.1 | 884.137 ± 0.091 | 895.506 ± 0.083 | 907.01 ± 0.076 | 917.847 ± 0.07

CCCCCCCCO [octan-1-ol]
Settings | refractive index
[2] | 1.4273 ± 0.0009

[3]
Settings | mass density, 298.15 K [kg/m3] | mass density, 303.15 K [kg/m3] | mass density, 308.15 K [kg/m3] | mass density, 313.15 K [kg/m3] | speed of sound, 298.15 K [m/s]
101 kPa | – | 818.209 ± 0.21 | 814.742 ± 0.21 | 810.629 ± 0.21 | –
101.33 kPa | 821.222 ± 0.21 | – | – | – | 1347.8 ± 1.5

CCCCCCCCCCO [decan-1-ol] + CN(C)C=O
mass density [kg/m3], [1]
Settings | x2 = 0 | x2 = 0.2361 | x2 = 0.4193 | x2 = 0.5688 | x2 = 0.6724 | x2 = 0.7496 | x2 = 0.8185 | x2 = 0.8748 | x2 = 0.923 | x2 = 0.9632
298.15 K | 826.562 ± 0.2 | 838.6 ± 0.16 | 851.13 ± 0.13 | 864.685 ± 0.11 | 876.794 ± 0.1 | 887.827 ± 0.092 | 899.61 ± 0.083 | 910.986 ± 0.076 | 922.298 ± 0.07 | 933.094 ± 0.065
303.15 K | 822.853 ± 0.2 | 834.589 ± 0.16 | 846.845 ± 0.13 | 860.269 ± 0.12 | 872.216 ± 0.1 | 883.031 ± 0.093 | 894.603 ± 0.085 | 905.795 ± 0.078 | 916.997 ± 0.072 | 927.772 ± 0.067
308.15 K | 819.427 ± 0.2 | 830.903 ± 0.16 | 843.033 ± 0.14 | 856.394 ± 0.12 | 868.282 ± 0.1 | 879.008 ± 0.095 | 890.399 ± 0.086 | 901.448 ± 0.08 | 912.559 ± 0.073 | 923.333 ± 0.068
313.15 K | 816.383 ± 0.2 | 827.267 ± 0.16 | 839.221 ± 0.14 | 852.343 ± 0.12 | 863.94 ± 0.1 | 874.443 ± 0.096 | 885.574 ± 0.088 | 896.397 ± 0.081 | 907.34 ± 0.075 | 918.051 ± 0.07

CCCCCCCCCO [nonan-1-ol] + CN(C)C=O
mass density [kg/m3], [1]
Settings | x2 = 0 | x2 = 0.2201 | x2 = 0.3969 | x2 = 0.5458 | x2 = 0.6515 | x2 = 0.7321 | x2 = 0.8042 | x2 = 0.8644 | x2 = 0.9168 | x2 = 0.9596
298.15 K | 824.478 ± 0.62 | 836.826 ± 0.43 | 849.646 ± 0.31 | 863.512 ± 0.22 | 875.893 ± 0.17 | 887.234 ± 0.14 | 899.18 ± 0.11 | 910.842 ± 0.092 | 922.441 ± 0.078 | 933.098 ± 0.067
303.15 K | 821.044 ± 0.62 | 833.085 ± 0.43 | 845.647 ± 0.31 | 859.175 ± 0.22 | 871.335 ± 0.17 | 882.498 ± 0.14 | 894.281 ± 0.11 | 905.742 ± 0.094 | 917.225 ± 0.079 | 927.834 ± 0.069
308.15 K | 817.582 ± 0.61 | 829.399 ± 0.43 | 841.793 ± 0.31 | 855.283 ± 0.22 | 867.284 ± 0.17 | 878.301 ± 0.14 | 889.932 ± 0.11 | 901.314 ± 0.095 | 912.742 ± 0.081 | 923.379 ± 0.071
313.15 K | 814.098 ± 0.61 | 825.49 ± 0.43 | 837.685 ± 0.31 | 851.074 ± 0.22 | 862.916 ± 0.17 | 873.711 ± 0.14 | 885.08 ± 0.12 | 896.217 ± 0.097 | 907.487 ± 0.083 | 918.072 ± 0.073
